Laboratory results published in patent publication US20250129095A1, “ANNULATED 2-AMINO-3-CYANO THIOPHENES AND DERIVATIVES FOR THE TREATMENT OF CANCER” (Boehringer Ingelheim Int'l GmbH Corp., priority 2021, published 2025).
Values after ≈ are worked out from the molar mass of the structure shown. Where two headings read alike, the source gives them in different places.

Columns and labels:
[1] = tested on: NCI-H358 cells; test: NCI-H358 CTG proliferation assay (120 h) (NSCLC, G12C); assay type: cell-based; details: Homo sapiens
Protocol: Additional Proliferation Assays with Mutant Cancer Cell Lines • NCI-H358 CTG proliferation assay (120 h) (NSCLC, G12C)
NCI-H358 cells (ATCC No. CRL-5807) are dispensed into black 384-well plates, flat and clear bottom (Greiner, PNr. 781091) at a density of 200 cells per well in 60 μl RPMI-1640 ATCC-Formulation (Gibco #A10491)+10% FCS (fetal calf serum). […] For the TO time point measurement, untreated cells are analyzed at the time of compound addition. Plates are incubated for 120 h, and cell viability is measured using CellTiter-Glo luminescent cell viability reagent (Promega product code G7570). Viability (stated as percent of control) is defined as relative luminescence units RLU of each well divided by the RLU of cells in DMSO controls.

[2] = molecular target: KRAS G12V Ba/F3 (Homo sapiens, UniProt P01116, G12V, cells depend on it); test: Ba/F3 proliferation assay, KRAS G12V; assay type: cell-based; details: 72 h, AlamarBlue, read-out: KRAS G12V Ba/F3 IC50
Sequence of KRAS G12V Ba/F3 (P01116 whole entry G12V, canonical isoform): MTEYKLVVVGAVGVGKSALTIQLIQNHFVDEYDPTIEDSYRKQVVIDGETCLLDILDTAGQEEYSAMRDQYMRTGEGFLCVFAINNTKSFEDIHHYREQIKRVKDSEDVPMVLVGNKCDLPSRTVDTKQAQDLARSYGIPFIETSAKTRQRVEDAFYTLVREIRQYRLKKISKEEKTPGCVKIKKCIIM
Protocol: (§1) Plasmids containing KRASG12 mutants(i.e. G12D, G12C, G12V) are obtained from GeneScript. To generate KRASG12-dependent Ba/F3 models, Ba/F3 cells are transduced with retroviruses containing vectors that harbor KRASG12 isoforms. Platinum-E cells (Cell Biolabs) are used for retrovirus packaging. Retrovirus is added to Ba/F3 cells. To ensure infection, 4 μg/mL polybrene is added and cells are spinfected. […] Cells with an infection efficiency of 10% to 20% are further cultivated and puromycin selection with 1 μg/mL is initiated. As a control, parental Ba/F3 cells are used to show selection status. Selection is considered successful when parental Ba/F3 cells cultures died. To evaluate the transforming potential of KRASG12 mutations, the growth medium is no longer supplemented with IL-3. Ba/F3 cells harboring the empty vector are used as a control. Approximately ten days before conducting the experiments, puromycin is left out.
(§2) Compounds are added using an Access Labcyte Workstation with a Labcyte Echo 550 or 555 accoustic dispenser. All treatments are performed in technical duplicates. […] AlamarBlue™ (ThermoFisher), a viability stain, is added and fluorescence measured in the PerkinElmer Envision HTS Multilabel Reader. The raw data are imported into and analyzed with the Boehringer Ingelheim proprietary software MegaLab (curve fitting based on the program PRISM, GraphPad Inc.).

[3] = molecular target: KRAS G12C Ba/F3 (Homo sapiens, UniProt P01116, G12C, cells depend on it); test: Ba/F3 proliferation assay, KRAS G12C; assay type: cell-based; details: 72 h, AlamarBlue, read-out: KRAS G12C Ba/F3 IC50
Sequence of KRAS G12C Ba/F3 (P01116 whole entry G12C): as the sequence (P01116 whole entry G12V, canonical isoform) above, with V12C counted along it
Protocol: as §1, §2

[4] = tested on: SK-CO-1 cells; test: SK-CO-1 CTG proliferation assay (120 h) (CRC, G12V); assay type: cell-based; details: Homo sapiens
Protocol: SK-CO-1 cells (ATCC HTB-39) are dispensed into 384-well plates, flat and clear bottom (Greiner, PNr. 781091) at a density of 500 cells per well in 60 μL EMEM (Sigma M5650)+10% Fetal Calf Serum (HyClone, PNr.: SH30084.03) and incubated at 37° C. in a CO2 incubator overnight. The next day, compounds (10 mM stock in DMSO) are added with the ECHO acoustic liquid handler system (Beckman Coulter), including DMSO controls. Plates are incubated for 120 h, and cell viability is measured using CellTiter-Glo luminescent cell viability reagent (Promega product code G7570). Viability (stated as percent of control) is defined as relative luminescence units RLU of each well divided by the RLU of cells in DMSO controls.

[5] = Solubility measurement (DMSO solution precipitation method); assay type: physicochemical; details: aqueous buffer, kinetic from dmso stock
Protocol: The DMSO solution is diluted with an aqueous medium (McIlvaine buffer with pH=4.5 or 6.8) to a final concentration of 250 μM. After 24 h of shaking at ambient temperature a potentially formed precipitate is removed by filtration. The concentration of the test compound in the filtrate is determined by LC-UV methods by calibrating the signal to the signal of a reference solution with complete dissolution of the test compound in acetonitrile/water (1:1) with known concentration.

[6] = McIlvaine buffer pH 4.5, 24 h, read-out: Solubility [μg/ml] pH 4.5
[7] = McIlvaine buffer pH 6.8, 24 h, read-out: Solubility [μg/ml] pH 6.8

Compound | IC50 [1] | GI50 [2] | GI50 [3] | IC50 [4] | solubility at 24 h [5, 6] | solubility at 24 h [5, 7]
C[C@H](Oc1cc(O[C@H]2CN(C)C(C)(C)C2)nc(-c2noc3c2CCC[C@@]32CCCc3sc(N)c(C#N)c32)n1)[C@@H]1CCCN1C [II-19] | 3270 nM | 151 nM | 218 nM | 933 nM | > 161 µg/mL | > 164 µg/mL
C[C@H](Oc1cc(OCCO)nc(-c2noc3c2CCC[C@@]32CCCc3sc(N)c(C#N)c32)n1)[C@@H]1CCCN1C [II-6] | 165 nM | 7 nM | 11 nM | 88 nM | > 121 µg/mL | > 119 µg/mL
COCCOc1cc(O[C@@H](C)[C@@H]2CCCN2C)nc(-c2noc3c2CCC[C@@]32CCCc3sc(N)c(C#N)c32)n1 [II-5] | 339 nM | 7 nM | 17 nM | 23 nM | > 140 µg/mL | 108 µg/mL (≈ 191 µM)
C[C@H](Oc1cc(Nc2nccs2)nc(-c2noc3c2CCC[C@@]32CCCc3sc(N)c(C#N)c32)n1)[C@@H]1CCCN1C [II-12] | 819 nM | 11 nM | 44 nM | 308 nM | 2 µg/mL (≈ 3.4 µM) | < 1 µg/mL
C[C@H]1CN(C)CCCN1c1cc(O[C@@H]2CNC2(C)C)nc(-c2noc3c2CCC[C@@]32CCCc3sc(N)c(C#N)c32)n1 [II-28] | 952 nM | 2040 nM | 2080 nM | 2590 nM | > 151 µg/mL | > 146 µg/mL
C[C@H](Oc1cc(O[C@H]2CCOC2)nc(-c2noc3c2CCC[C@@]32CCCc3sc(N)c(C#N)c32)n1)[C@@H]1CCCN1C [II-4] | 193 nM | 6 nM | 12 nM | 28 nM | 80 µg/mL (≈ 139 µM) | < 1 µg/mL
C[C@H](Oc1cc(Nc2ncccn2)nc(-c2noc3c2CCC[C@@]32CCCc3sc(N)c(C#N)c32)n1)[C@@H]1CCCN1C [II-17] | 775 nM | 10 nM | 19 nM | 60 nM | 67 µg/mL (≈ 115 µM) | < 1 µg/mL
C[C@H](Oc1cc(Sc2ncccn2)nc(-c2onc3c2CCC[C@@]32CCCc3sc(N)c(C#N)c32)n1)[C@@H]1CCCN1C [Example I-7] | 5620 nM | 31 nM | 75 nM | 796 nM | > 146 µg/mL | 70 µg/mL (≈ 117 µM)
C[C@H](Oc1cc(Nc2ccccn2)nc(-c2onc3c2CCC[C@@]32CCCc3sc(N)c(C#N)c32)n1)[C@@H]1CCCN1C [Example I-6] | 1360 nM | 14 nM | 58 nM | 273 nM | 23 µg/mL (≈ 39.5 µM) | 2 µg/mL (≈ 3.43 µM)
